Measured values published in patent US20130280269A1, “Manipulation of HSP70 and IRE1Alpha Protein Interactions” (National University of Ireland, priority 2010, published 2013).

What was measured:
PC12 cells [1] = assay: Loss of mitochondrial membrane potential (ΔΨm), TMRE staining and flow cytometry; format: cell-based, Rat; details: 48 h, thapsigargin 0.25 μM
Method: (§1) FIG. 2. Hsp72 prevents ER stress-induced loss of mitochondrial membrane potential and cytochrome c release. (A) The control (Neo) and Hsp72 expressing (Hsp72) PC12 cells were either untreated (Control) or treated with (0.25 μM) Tg for the indicated time and mitochondrial membrane potential was assessed by TRME staining and flow cytometry. A representative image of three independent experiments is shown. (B) The control (Neo) and Hsp72 expressing (Hsp72) PC12 cells were treated (0.25 μM) Tg for indicated time points. Following treatment cells were incubated with TMRE (100 nM). Mitochondrial membrane potential was monitored by measuring the fluorescence intensity at 582 nm (FL2). Average and error bars represent mean±SD from three independent experiments. (C) The control (Neo) and Hsp72 expressing (Hsp72) PC12 cells were treated with (0.25 μM) Tg for the indicated time. Cytosolic extracts were prepared as described in materials and methods and resolved by SDS-PAGE followed by western blotting using antibodies against Cytochrome c and β-actin.
The effect of Hsp72 on the dissipation of ΔΨm and release of cytochrome c to the cytosol upon exposure to ER stress stimuli was evaluated. To quantify ΔΨm, probe tetramethylrhodamine ethyl ester (TMRE, Molecular Probes), a potentiometric fluorescent dye that incorporates into mitochondria in a ΔΨm-dependent manner, was used. Cells were trypsinized and then were either left untreated or treated with 0.25 μM thapsigargin. The cells were then incubated with TMRE for 30 min in the dark and analyzed by flow cytometry using a FACSCalibur instrument. […] The expression of Hsp72 inhibited the loss of ΔΨm (FIG. 2A). At 48 h, loss of ΔΨm was detected in 80-90% of Neo cells treated with thapsigargin or tunicamycin, respectively (FIG. 2B).

PC12 cells [2] = assay: Release of cytochrome c into the cytosol, western blot of cytosolic extracts; format: cell-based, Rat; details: 0.25 μM Tg, 24 h
Method: as §1
To further study the involvement of mitochondria in ER stress-induced cell death, the release of cytochrome c into the cytosol was assessed. […]

[3] = molecular target: T1, wild-type Hsp72 (inducible form of Hsp70), stably expressed in PC12 cells (Homo sapiens (Human), UniProt P0DMV8 2-641, limits assumed); assay: co-immunoprecipitation with HA-agarose from Hsp72-expressing PC12 cells, western blot (FIG. 5C)
T1 construct: Expressed from a plasmid (gift of Dr. Tomomi Gotoh) in rat PC12 cells and tested in cell lysates by co-immunoprecipitation; also called Hsp72 WT; inducible Hsp70
T1 sequence (P0DMV8 2-641 limits assumed): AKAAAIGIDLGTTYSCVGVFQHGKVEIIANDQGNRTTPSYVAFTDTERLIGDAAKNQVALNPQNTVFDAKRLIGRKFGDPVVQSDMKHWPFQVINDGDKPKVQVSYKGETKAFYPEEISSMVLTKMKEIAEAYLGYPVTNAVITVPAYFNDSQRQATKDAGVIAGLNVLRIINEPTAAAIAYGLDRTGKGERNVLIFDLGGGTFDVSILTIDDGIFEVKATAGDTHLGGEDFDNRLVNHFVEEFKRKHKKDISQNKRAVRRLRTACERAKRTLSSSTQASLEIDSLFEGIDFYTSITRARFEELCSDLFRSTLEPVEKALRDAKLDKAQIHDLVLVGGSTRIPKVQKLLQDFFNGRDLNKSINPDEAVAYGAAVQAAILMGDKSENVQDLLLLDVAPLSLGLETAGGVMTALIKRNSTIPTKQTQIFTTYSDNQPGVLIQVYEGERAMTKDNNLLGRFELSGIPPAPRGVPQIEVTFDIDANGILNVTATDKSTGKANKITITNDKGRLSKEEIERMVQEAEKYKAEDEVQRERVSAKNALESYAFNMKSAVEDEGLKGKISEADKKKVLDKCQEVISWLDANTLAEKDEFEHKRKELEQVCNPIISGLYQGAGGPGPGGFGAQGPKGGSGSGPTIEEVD
Method: FIG. 5. Hsp72 forms a protein complex with IRE1α, and ATPase domain of HSP72 is critical for IRE1α binding. (A) Schematic diagram for IRE1α structure domains and expression constructs. (B) Schematic diagram for Hsp72 structure domains and expression constructs. (C) Hsp72 expressing PC12 cells (Hsp2) were transfected with empty vector (EV) or expression vectors for IRE1α FL-HA or IRE1α ΔC-HA. After 24 h, cells were either left untreated (UT) or treated with (0.25 μM) Tg for 12 h and then the co-precipitation of Hsp72 with IRE1α FL-HA or IRE1α ΔC-HA was evaluated by IP and western blot. (D) PC12 cells expressing the indicated Hsp72 constructs were transfected with IRE1α FL-HA. […] Co-precipitation of wild-type, ΔATPase and ΔEEVD mutant of Hsp72 with IRE1α FL-HA was evaluated by IP and western blot. […] After 48 hr, IRE1α FL-HA was immunoprecipitated and its association with endogenous Hsp72 was assessed by western blot. (F) Endogenous Hsp72 was immunoprecipitated from HEK 293 cells transiently transfected with IRE1α FL-HA expression vector or empty vector (EV), and its association with IRE1α was determined by western blot analysis. […]
Interaction of Hsp72-IRE1α was determined by co-immunoprecipitation assays. […] Protein complexes were extracted by boiling the beads with 2× lane marker buffer and analysed by western blotting as described above using the primary antibody IRE1α (Cell Signalling Cat#3294S). […]

binding result [3]	Molecule	loss of ΔΨm, cells (PC12 cells [1]; Hsp72 expressing PC12 cells) [%]	loss of ΔΨm, cells (PC12 cells [1]; control (Neo) PC12 cells) [%]	release of cytochrome c induced by thapsigargin (PC12 cells [2]; Hsp72 expressing PC12 cells, compared with Neo cells)	release of cytochrome c from mitochondria to the cytoplasm (PC12 cells [2]; control (Neo) PC12 cells)
–	C/C=C(/C)C(=O)O[C@H]1C(C)=C2[C@H]([C@@H]1OC(=O)CCCCCCC)[C@@](C)(OC(C)=O)C[C@H](OC(=O)CCC)[C@@]1(O)[C@H]2OC(=O)[C@@]1(C)O [thapsigargin]	50	80	significantly reduced	triggered release of cytochrome c
–	tunicamycin	50	90	–	–
no binding	IRE1α ΔC-HA (enzyme, HA-tagged IRE1α lacking the cytosolic C-terminal region; also called IRE1α DC-HA; not shown: HA tag) IFGSTSTVTLPETLLFVSTLDGSLHAVSKRTGSIKWTLKEDPVLQVPTHVEEPAFLPDPNDGSLYTLGSKNNEGLTKLPFTIPELVQASPCRSSDGILYMGKKQDIWYVIDLLTGEKQQTLSSAFADSLCPSTSLLYLGRTEYTITMYDTKTRELRWNATYFDYAASLPEDDVDYKMSHFVSNGDGLVVTVDSESGDVLWIQNYASPVVAFYVWQREGLRKVMHINVAVETLRYLTFMSGEVGRITKWKYPFPKETEAKSKLTPTLYVGKYSTSLYASPSMVHEGVAVVPRGSTLPLLEGPQTDGVTIGDKGECVITPSTDVKFDPGLKSKNKLNYLRNYWLLIGHHETPLSASTKMLERFPNNLPKHRENVIPADSEKKSFEEVINLVDQTSENAPTTVSRDVEEKPAHAPARPEAPVDSMLKDMATIILSTFLLIGWVAFIITYPLSMHQQQQLQHQQFQKELEKIQLLQQQQQQLPFH	–	–	–	–
